Reference: PubChem BioAssay AID248 (DTP/NCI, 2004)
Values joined by “and” are separate entries in the source; they are usually repeats but may differ in a detail not shown here. Equal entries are not always repeated. Toxic doses and inconclusive results are not listed. No stated cut-off is given here; in the data, active means T/C of 150% or more; inactive means T/C below 125%.

Tested on: L1210 leukemia ip in BDF1 mice, survival T/C
Assay: NCI In Vivo Anticancer Drug Screen. Data for tumor model L1210 Leukemia (intraperitoneal) in B6D2F1 (BDF1) mice
Conditions: endpoint: mean survival time, higher = longer survival
Summary of the method: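 Antitumor effect is assessed in tumor-bearing animals. Survival in the compound arm is compared with a vehicle-dosed control arm and expressed as their quotient.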

[1] = dose: 100.0 mg/kg/injection, schedule: Q01DX009 (ip), vehicle: saline with Tween-80
[2] = dose: 100.0 mg/kg/injection, schedule: Q04DX003 (ip), vehicle: saline with Tween-80
[3] = dose: 200.0 mg/kg/injection, schedule: Q01DX009 (ip), vehicle: saline with Tween-80
[4] = dose: 200.0 mg/kg/injection, schedule: Q04DX003 (ip), vehicle: saline with Tween-80
[5] = dose: 400.0 mg/kg/injection, schedule: Q01DX009 (ip), vehicle: saline with Tween-80
[6] = dose: 400.0 mg/kg/injection, schedule: Q04DX003 (ip), vehicle: saline with Tween-80
[7] = dose: 100.0 mg/kg/injection, schedule: Q01DX001 (ip), vehicle: saline
[8] = dose: 200.0 mg/kg/injection, schedule: Q01DX001 (ip), vehicle: saline
[9] = dose: 400.0 mg/kg/injection, schedule: Q01DX001 (ip), vehicle: saline
[10] = dose: 100.0 mg/kg/injection, schedule: Q01DX009 (ip), vehicle: saline
[11] = dose: 200.0 mg/kg/injection, schedule: Q01DX009 (ip), vehicle: saline
[12] = dose: 100.0 mg/kg/injection, schedule: Q04DX003 (ip), vehicle: Klucel (hydroxypropylcellulose) (HPC)
[13] = dose: 200.0 mg/kg/injection, schedule: Q04DX003 (ip), vehicle: Klucel (hydroxypropylcellulose) (HPC)
[14] = dose: 400.0 mg/kg/injection, schedule: Q04DX003 (ip), vehicle: Klucel (hydroxypropylcellulose) (HPC)
[15] = dose: 100.0 mg/kg/injection, schedule: Q04DX002 (ip), vehicle: saline with Tween-80
[16] = dose: 200.0 mg/kg/injection, schedule: Q04DX002 (ip), vehicle: saline with Tween-80
[17] = dose: 400.0 mg/kg/injection, schedule: Q04DX002 (ip), vehicle: saline with Tween-80
[18] = dose: 100.0 mg/kg/injection, schedule: Q04DX003 (ip), vehicle: saline
[19] = dose: 200.0 mg/kg/injection, schedule: Q04DX003 (ip), vehicle: saline
[20] = dose: 400.0 mg/kg/injection, schedule: Q04DX003 (ip), vehicle: saline
[21] = dose: 50.0 mg/kg/injection, schedule: Q04DX003 (ip), vehicle: saline

Measured: T/C

N#CSCc1ccc(CSC#N)c(Br)c1
inactive: dose: 75.0 mg/kg/injection, schedule: Q01DX009 (ip), vehicle: saline 88 % of control

CSc1ncnc2c1nc[n]2[Sn]([c]1ccccc1)([c]1ccccc1)[c]1ccccc1.CSc1ncnc2nc[nH]c12
inactive: dose: 5.0 mg/kg/injection, schedule: Q01DX001 (ip), vehicle: other 108 % of control | dose: 10.0 mg/kg/injection, schedule: Q01DX001 (ip), vehicle: other 104 % of control | dose: 20.0 mg/kg/injection, schedule: Q01DX001 (ip), vehicle: other 111 % of control

COc1ccc(NC(=O)Oc2ccc3c(C)cc(=O)oc3c2)c(OC)c1
inactive: [1] 106 % of control | [2] 101 % of control | [3] 106 % of control | [4] 116 % of control | [5] 118 % of control | [6] 106 % of control

COc1cc(C)c(OC)cc1C
inactive: [2] 99 % of control | [4] 99 % of control | [6] 94 % of control

CCCOC1=C2CCCCC2CC1 (stereo unspecified)
inactive: [7] 113 % of control | [8] 113 % of control | [9] 102 % of control

OCCNCc1cccc(-c2ccccc2)c1O
inactive: [1] 93 % of control | [3] 87 % of control | [5] 101 % of control

O=P(Oc1ccccc1)(N1CCCC1)N1CCCC1
inactive: dose: 50.0 mg/kg/injection, schedule: Q01DX009 (ip), vehicle: saline 100 % of control | [10] 91 % of control | dose: 100.0 mg/kg/injection, schedule: Q04DX002 (ip), vehicle: saline 100 % of control | [11] 98 % of control | dose: 200.0 mg/kg/injection, schedule: Q04DX002 (ip), vehicle: saline 95 % of control

CC(C)(Cc1c[nH]c2ccccc12)NC(=O)c1ccccc1
inactive: dose: 100.0 mg/kg/injection, schedule: Q01DX009 (ip), vehicle: Klucel (hydroxypropylcellulose) (HPC) 90 % of control | [12] 100 % of control | [13] 98 % of control | dose: 400.0 mg/kg/injection, schedule: Q01DX009 (ip), vehicle: Klucel (hydroxypropylcellulose) (HPC) 92 % of control | [14] 98 % of control

COCc1nc2c(=S)nc[nH]c2n1N
inactive: dose: 100.0 mg/kg/injection, schedule: Q01DX001 (ip), vehicle: carboxymethylcellulose (CMC) 105 % of control | dose: 200.0 mg/kg/injection, schedule: Q01DX001 (ip), vehicle: carboxymethylcellulose (CMC) 98 % of control

COc1ccc(/C=C(\CCCOC(C)=O)[N+](=O)[O-])cc1
inactive: [7] 100 % of control | [8] 111 % of control | [9] 113 % of control

COc1c(C)c(C)c(OC)c(C(C)O)c1C (stereo unspecified)
inactive: dose: 100.0 mg/kg/injection, schedule: Q04DX003 (ip), vehicle: other 92 % of control | dose: 200.0 mg/kg/injection, schedule: Q04DX003 (ip), vehicle: other 100 % of control | dose: 400.0 mg/kg/injection, schedule: Q04DX003 (ip), vehicle: other 97 % of control

Cc1cc(Cl)cc(C(=O)Cl)c1O
inactive: [15] 111 % of control | [16] 107 % of control | [17] 103 % of control

O=CNNC(=O)c1cnccn1
inactive: [10] 104 % of control | [18] 103 % of control | dose: 177.0 mg/kg/injection, schedule: Q01DX009 (ip), vehicle: saline 117 % of control | [11] 115 % of control | [19] 97 % of control | dose: 266.0 mg/kg/injection, schedule: Q01DX009 (ip), vehicle: saline 114 % of control | [20] 120 % of control

CC(C)(C)C(=O)C=C(C(F)(F)F)C(F)(F)F
inactive: dose: 6.25 mg/kg/injection, schedule: Q01DX009 (ip), vehicle: saline 106 % of control | dose: 6.25 mg/kg/injection, schedule: Q04DX003 (ip), vehicle: saline 100 % of control | dose: 12.5 mg/kg/injection, schedule: Q01DX009 (ip), vehicle: saline 106 % of control | dose: 12.5 mg/kg/injection, schedule: Q04DX003 (ip), vehicle: saline 97 % of control | dose: 25.0 mg/kg/injection, schedule: Q01DX009 (ip), vehicle: saline 108 % of control | dose: 25.0 mg/kg/injection, schedule: Q04DX003 (ip), vehicle: saline 105 % of control | [21] 96 % of control and 105 % of control

CCCCCCCC(CCCCCC)CCCCCCC
inactive: dose: 50.0 mg/kg/injection, schedule: Q04DX002 (ip), vehicle: saline with Tween-80 89 % of control | [15] 110 % of control | [16] 103 % of control | [17] 106 % of control

O=C(O)c1cc(Br)cc(I)c1I
inactive: [15] 105 % of control | [16] 105 % of control | [17] 110 % of control

O=CNC(O)C(Cl)(Cl)Cl (stereo unspecified)
inactive: [10] 98 % of control | [18] 109 % of control | [11] 89 % of control | [19] 95 % of control | dose: 400.0 mg/kg/injection, schedule: Q01DX009 (ip), vehicle: saline 89 % of control | [20] 95 % of control

O=C(O)c1ccc(P(=O)(O)O)cc1[N+](=O)[O-]
inactive: [21] 95 % of control | [18] 100 % of control

CC(=O)OC1CCC2(C)C3CCC4(C)C(CCC45OC5(C)OC(C)=O)C3CC3OC32C1 (stereo unspecified)
inactive: dose: 50.0 mg/kg/injection, schedule: Q01DX001 (sc), vehicle: steriod suspending solution 111 % of control | dose: 100.0 mg/kg/injection, schedule: Q01DX001 (sc), vehicle: steriod suspending solution 98 % of control | dose: 200.0 mg/kg/injection, schedule: Q01DX001 (sc), vehicle: steriod suspending solution 106 % of control | dose: 400.0 mg/kg/injection, schedule: Q01DX001 (sc), vehicle: steriod suspending solution 101 % of control

CCOC(=O)c1ccc(NCC#N)cc1
inactive: dose: 25.0 mg/kg/injection, schedule: Q01DX009 (ip), vehicle: saline with Tween-80 92 % of control | dose: 50.0 mg/kg/injection, schedule: Q01DX009 (ip), vehicle: saline with Tween-80 95 % of control | dose: 100.0 mg/kg/injection, schedule: Q01DX001 (ip), vehicle: saline with Tween-80 97 % of control | [1] 94 % of control | dose: 200.0 mg/kg/injection, schedule: Q01DX001 (ip), vehicle: saline with Tween-80 92 % of control | [3] 91 % of control | dose: 400.0 mg/kg/injection, schedule: Q01DX001 (ip), vehicle: saline with Tween-80 98 % of control | [5] 102 % of control

CCCCC1=Cc2cc3c(cc2C1N(C)C)OCO3 (stereo unspecified)
inactive: dose: 6.25 mg/kg/injection, schedule: Q04DX002 (ip), vehicle: Klucel (hydroxypropylcellulose) (HPC) 102 % of control | dose: 12.5 mg/kg/injection, schedule: Q04DX002 (ip), vehicle: Klucel (hydroxypropylcellulose) (HPC) 99 % of control | dose: 25.0 mg/kg/injection, schedule: Q04DX002 (ip), vehicle: Klucel (hydroxypropylcellulose) (HPC) 95 % of control and 105 % of control | dose: 100.0 mg/kg/injection, schedule: Q04DX002 (ip), vehicle: Klucel (hydroxypropylcellulose) (HPC) 92 % of control

CC(C)(C)N1C(=O)N(C(C)(C)C)C1=O
inactive: [1] 91 % of control | [12] 113 % of control | [3] 94 % of control | [13] 102 % of control | [5] 93 % of control | [14] 109 % of control
